# According to patent US7511036B2, “Dihydrothiazine prodrugs of thiazolium agents” (Synvista Therapeutics, Inc., priority 2003, dated 2009):
# Counter-ions that a name gives are not always drawn.
# Tests used:
# TGFbeta = assay: In situ hybridization studies, TGFbeta expression; type: in vivo
# Source text: (§1) Cardiovascular risk correlates more closely with the systolic and the pulse pressure than with the diastolic pressure. In diabetic patients, the cardiovascular risk profile of diabetic patients is strongly correlated to duration of diabetes, glycemic control and blood pressure. Structural matrix proteins contribute to the function of vessels and the heart, and changes in the physical behavior of cardiovascular walls are believed to be important determinants of circulatory function. In elderly individuals, the loss of compliance in the aorta leads to systolic hypertension and isolated systolic hypertension, which in turn expands the arterial wall and thereby diminishes the dynamic range of elasticity. […] These studies indicate that prodrugs of such thiazolium compounds should have a similar effect.
# Rhesus monkeys [1] = details: pilocarpine-stimulated accommodation; see the '112 application; cited from earlier work
# Rhesus monkeys [2] = details: drug treated vs. control eye, baseline and pilocarpine-stimulated; see the '112 application; cited from earlier work
# dog model for diabetes = assay: Dog model for diabetes, indicators of ventricular elasticity; type: in vivo; details: indicator of ventricular elasticity
# Source text: as §1
# Type IV collagen = assay: In situ hybridization studies, Type IV collagen expression; type: in vivo
# Source text: as §1
# [3] = tested on: collagen in cardiovascular tissues; assay: Mass of collagen in cardiovascular tissues after treatment; details: in vivo
# Source text: as §1
# [4] = tested on: elderly patients with pulse pressures greater than 60 mm Hg; assay: Phase IIa clinical trial; type: in vivo, human; details: for left ventricular mass: Phase IIa clinical trial, echocardiography
# Source text: as §1
# Pulse pressure is the difference between systolic and diastolic blood pressure. In a young human, systolic pressure is typically 120 mm Hg and diastolic pressure is 80 mm Hg, resulting in a pulse pressure of 40 mm Hg. With age, in many individuals pulse pressure increases, largely due to the increase in systolic pressure that results from stiff vessel disease. In individuals with pulse pressure greater than 60 mm Hg there is an increased risk of death from cardiovascular morbidities. […] This decrease in pulse pressure was believed to be due primarily to the effect of the agent on lowering the systolic blood pressure.
# When the heart pumps blood into the vascular system, the ability of the arteries to expand helps to push blood through the body. When arteries become stiff, as they do in the natural process of aging, the ability of the arteries to expand is diminished which also has consequences for the heart. The heart has to work harder to pump the blood into the stiff arteries, and it eventually hypertrophies (enlarges in size) to accomplish this. A hypertrophied heart is an inefficient pump, and is one of the disorders that leads to congestive heart failure. […] Such a compound can be provided by administration of an N-formyl thiazine compound, (i.e., 2-hydroxy-5,6-dimethyl-2-phenyl-2,3-dihydro-(1,4)thiazine-4-carbaldehyde) and conversion of the compound under, for example, acidic conditions in the stomach, to the corresponding thiazolium salt. The potential clinical benefit of this is to lessen the effort that the heart must expend to push blood throughout the body. The effect is also believed to contribute to preventing hypertrophy and subsequent inefficiency of the heart, which inefficiency would contribute to congestive heart failure.
# Atherosclerosis is a disease that involves deposition of blood lipids in plaque in the arteries throughout the body. In coronary arteries, accumulation of plaque progressively leads to reduced coronary flow, with occlusion of the arteries causing focal death of cardiac tissue (myocardial infarction, heart attack). If the amount of tissue that dies is large enough, death ensues. […] Reducing local deposits of plaque should eventually lessen the risk of myocardial infarction and death due to heart attacks.
# [5] = Conversion of dihydrothiazine to thiazolium chloride under acidic conditions; type: physicochemical
# Method: The following experiment provides evidence that thiazine structures related to compound la can be converted under acidic conditions to thiazolium structures, and thus can serve as pro-drug forms of thiazolium agents.
# Compound Ia (2.48 mmol, 0.620 g) was weighed into a 100 mL round bottom flask equipped with magnetic stir bar. Methanol (40 mL) was added, and the solution was stirred until all solid was dissolved. Aqueous hydrochloric acid was added (1N, 3.968 mmol, 4.0 mL) and the reaction solution stirred at ambient temperature for 48 hours. The methanol was removed in vacuo, and the residue was diluted with 25 mL of distilled water. The aqueous layer was extracted with methyl t-butyl ether (2×20 mL). The aqueous layer was concentrated to dryness in vacuo and the residue was crystallized with acetonitrile, methyl-t-butyl-ether (1:1). The crystals were collected via filtration to give 598 mg (90% yield) of 4,5-dimethyl-3-(2-oxo-2-phenylethyl)-thiazolium chloride. […]
# In a 15 mL round bottom flask, stirred with a magnetic stirrer, was charged 36 mg (0.16 mmol) of compound Ib (prepared as described by Thornalley et al., Biochemical Pharmacology, vol. 57,pp 303-308, 1999), 2 mL of 1% hydrochloric acid and 2 mL of Ethyl Acetate. Since there was no reaction as monitored by HPLC, 2 mL of 5N Hydrochloric acid, and 2 mL of methanol was added, and the flask was heated to 35° C. […]
"conversion to thiazolium under acidic conditions ([5]; 1% hydrochloric acid and ethyl acetate, monitored by HPLC)","time until the conversion to thiazolium chloride was finished ([5]; after adding 5N hydrochloric acid and methanol, 35° C., HPLC)",SMILES,expression of TGFbeta (TGFbeta),improvement in accommodation (Rhesus monkeys [1]),improvement in fluid outflow facility (ophthalmologic function) (Rhesus monkeys [2]),end diastolic pressure (dog model for diabetes),end diastolic volume (dog model for diabetes),expression of Type IV collagen (Type IV collagen),mass of collagen in cardiovascular tissues [3],left ventricular mass [4],"left ventricular mass ([4]; listed as 3-[2-phenyl-2-oxoethyl]-4,5-dimethyl-thiazolium chloride salt)",stiffness of arteries (ratio of stroke volume (ml) to pulse pressure (mm Hg)) ([4]; Phase IIa clinical trials),amount of circulating triglycerides (lipids) ([4]; Phase IIa trial),"pulse pressure ([4]; Phase IIa trial, elderly patients with pulse pressures greater than 60 mm Hg, statistically significant)"
–,–,"Cc1sc[n+](CC(=O)c2ccccc2)c1C [3-[2-phenyl-2-oxoethyl]-4,5-dimethyl-thiazolium salt]",reduces the expression,Improvement in accommodation has been illustrated,improvement has been illustrated,returned to a value at about the mid-point between the disease impaired value and the value for control dogs,returned to a value at about the mid-point between the disease impaired value and the value for control dogs,reduces the expression,reduction in the mass of collagen,reduction of left ventricular mass,reduce left ventricular mass,reverse the stiffness of arteries,increased the amount of circulating triglycerides,reduced pulse pressure
no reaction,about 15 h,"O=CN1C=CSC(O)(c2ccccc2)C1 (centres unmarked) [Ib, 2-Hydroxy-2-Phenyl-2,3-Dihydro-(1,4)thiazine-4-carbaldehyde]",–,–,–,–,–,–,–,–,–,–,–,–
